# “And” between values parts separate entries of the source, which are not always exact repeats. Equal entries are not always repeated. Where two headings read alike, the source gives them in different places.
# Legend:
# JAK1 = JAK1 (Homo sapiens (Human), UniProt P23458); experiment: Z′-Lyte kinase inhibitory activity test; assay type: biochemical; details: ATP concentration Km
# Protocol: (§1) Test method: Firstly, test compounds were prepared into 10 mM stock solution with DMSO, and continuously diluted into 10 concentrations at a 3-fold gradient for later use. 5X reaction buffer was diluted with deionized water into 1×reaction buffer (50 mM HEPES pH 7.5, 0.01% Brij-35, 10 mM MgCl2, 1 mM EGTA), which was used to prepare a mixture of kinase and peptide substrate, as well as a phosphorylated peptide substrate solution. The kinase concentration was determined based on enzyme titration, and the final concentration of peptide substrate and phosphorylated peptide substrate was 2 μM. 5 μL of mixture substrate of kinase and peptide substrate was added to each well on the 384 well plate. Then 5 nL of the test compound (starting with a final concentration of 10 μM) was added with an Echo520 Sampler. […] An additional 100% phosphorylation well (5 μL phosphorylated peptide substrate solution), a 0% phosphorylated well (5 μL of a mixture of kinase and peptide substrate, without test compounds and ATP), and a 0% inhibitory well (5 μL of a mixture of kinase and peptide substrate and appropriate concentration of ATP) were set as control. Two repeats were set for each concentration. The above reaction system was incubated at 30° C. for 1.5 hours. […] 2.5 μL of the diluted mixture was added to each well and the system was incubated at 30° C. for another 1 hour. […] The substrate phosphorylation rate was obtained by calculating the ratio, and the activity of the kinase and the effect of the inhibitor on the kinase was further calculated. Every experiment was repeated at least three times.
# JAK2 = JAK2 (Homo sapiens (Human), UniProt O60674); experiment: Z′-Lyte kinase inhibitory activity test; assay type: biochemical
# Sequence of JAK2 (O60674 whole entry): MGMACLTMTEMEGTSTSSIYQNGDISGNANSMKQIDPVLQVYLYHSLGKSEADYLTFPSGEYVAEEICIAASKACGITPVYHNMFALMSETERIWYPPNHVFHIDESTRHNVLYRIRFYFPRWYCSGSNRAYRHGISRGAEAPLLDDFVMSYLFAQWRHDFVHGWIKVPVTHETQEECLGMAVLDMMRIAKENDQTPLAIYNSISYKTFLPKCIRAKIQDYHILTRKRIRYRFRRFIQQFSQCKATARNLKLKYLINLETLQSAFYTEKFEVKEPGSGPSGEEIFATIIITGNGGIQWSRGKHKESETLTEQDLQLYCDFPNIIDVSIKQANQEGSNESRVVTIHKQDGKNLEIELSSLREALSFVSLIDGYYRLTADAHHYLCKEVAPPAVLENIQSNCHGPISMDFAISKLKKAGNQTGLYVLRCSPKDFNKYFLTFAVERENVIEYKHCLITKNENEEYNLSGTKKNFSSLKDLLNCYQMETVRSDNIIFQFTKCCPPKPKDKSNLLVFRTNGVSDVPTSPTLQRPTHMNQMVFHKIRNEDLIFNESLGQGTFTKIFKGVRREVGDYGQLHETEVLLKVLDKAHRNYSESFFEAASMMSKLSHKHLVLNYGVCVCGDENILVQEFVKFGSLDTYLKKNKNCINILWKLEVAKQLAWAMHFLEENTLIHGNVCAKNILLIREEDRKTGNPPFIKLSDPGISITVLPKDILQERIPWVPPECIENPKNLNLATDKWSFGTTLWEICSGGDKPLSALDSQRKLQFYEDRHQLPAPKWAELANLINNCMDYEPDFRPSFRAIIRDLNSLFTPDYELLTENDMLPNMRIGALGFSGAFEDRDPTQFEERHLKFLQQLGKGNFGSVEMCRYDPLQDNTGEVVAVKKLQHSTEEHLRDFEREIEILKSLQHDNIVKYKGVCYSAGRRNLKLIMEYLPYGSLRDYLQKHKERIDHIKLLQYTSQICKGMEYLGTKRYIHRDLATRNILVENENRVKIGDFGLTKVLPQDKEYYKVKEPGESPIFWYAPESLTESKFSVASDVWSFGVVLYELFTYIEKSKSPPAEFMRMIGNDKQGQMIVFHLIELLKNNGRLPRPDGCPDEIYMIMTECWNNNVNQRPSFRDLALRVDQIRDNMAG
# Protocol: as §1
# JAK3 = JAK3 (Homo sapiens (Human), UniProt P52333); experiment: Z′-Lyte kinase inhibitory activity test; assay type: biochemical; details: for JAK3 kinase inhibitory activity and selectivity (in words): summary of Table 3, activity maintained at ATP 1 mM
# Sequence of JAK3 (P52333 whole entry): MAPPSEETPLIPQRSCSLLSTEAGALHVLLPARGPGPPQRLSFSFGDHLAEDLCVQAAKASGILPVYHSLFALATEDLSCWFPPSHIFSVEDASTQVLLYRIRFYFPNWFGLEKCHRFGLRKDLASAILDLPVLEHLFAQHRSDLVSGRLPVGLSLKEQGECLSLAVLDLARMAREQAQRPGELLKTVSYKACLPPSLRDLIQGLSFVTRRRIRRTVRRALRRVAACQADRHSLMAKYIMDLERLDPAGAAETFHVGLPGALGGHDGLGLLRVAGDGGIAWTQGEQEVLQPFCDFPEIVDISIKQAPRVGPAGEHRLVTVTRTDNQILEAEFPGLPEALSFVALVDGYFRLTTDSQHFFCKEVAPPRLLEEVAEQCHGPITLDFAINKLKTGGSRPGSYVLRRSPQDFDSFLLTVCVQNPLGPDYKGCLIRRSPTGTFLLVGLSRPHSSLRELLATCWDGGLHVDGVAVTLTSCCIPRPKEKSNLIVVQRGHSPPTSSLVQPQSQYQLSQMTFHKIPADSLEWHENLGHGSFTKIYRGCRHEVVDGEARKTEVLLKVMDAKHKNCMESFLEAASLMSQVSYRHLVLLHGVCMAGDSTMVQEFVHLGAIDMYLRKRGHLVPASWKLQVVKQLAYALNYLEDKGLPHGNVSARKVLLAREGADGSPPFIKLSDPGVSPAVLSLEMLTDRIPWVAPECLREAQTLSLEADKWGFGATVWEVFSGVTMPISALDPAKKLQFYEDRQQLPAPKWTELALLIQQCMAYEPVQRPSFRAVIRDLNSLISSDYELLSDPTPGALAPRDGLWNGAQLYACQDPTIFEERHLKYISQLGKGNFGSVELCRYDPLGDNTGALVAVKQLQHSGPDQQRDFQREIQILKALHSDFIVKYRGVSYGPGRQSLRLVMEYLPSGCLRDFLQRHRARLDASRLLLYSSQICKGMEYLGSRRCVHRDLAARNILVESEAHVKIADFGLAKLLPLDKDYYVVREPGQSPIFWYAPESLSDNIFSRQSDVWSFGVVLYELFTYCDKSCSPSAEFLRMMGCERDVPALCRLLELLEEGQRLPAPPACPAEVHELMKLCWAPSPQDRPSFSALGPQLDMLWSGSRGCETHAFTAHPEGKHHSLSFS
# Protocol: as §1
# TYK2 = TYK2 (Homo sapiens (Human), UniProt P29597); experiment: Z′-Lyte kinase inhibitory activity test; assay type: biochemical; details: ATP concentration Km
# Sequence of TYK2 (P29597 whole entry): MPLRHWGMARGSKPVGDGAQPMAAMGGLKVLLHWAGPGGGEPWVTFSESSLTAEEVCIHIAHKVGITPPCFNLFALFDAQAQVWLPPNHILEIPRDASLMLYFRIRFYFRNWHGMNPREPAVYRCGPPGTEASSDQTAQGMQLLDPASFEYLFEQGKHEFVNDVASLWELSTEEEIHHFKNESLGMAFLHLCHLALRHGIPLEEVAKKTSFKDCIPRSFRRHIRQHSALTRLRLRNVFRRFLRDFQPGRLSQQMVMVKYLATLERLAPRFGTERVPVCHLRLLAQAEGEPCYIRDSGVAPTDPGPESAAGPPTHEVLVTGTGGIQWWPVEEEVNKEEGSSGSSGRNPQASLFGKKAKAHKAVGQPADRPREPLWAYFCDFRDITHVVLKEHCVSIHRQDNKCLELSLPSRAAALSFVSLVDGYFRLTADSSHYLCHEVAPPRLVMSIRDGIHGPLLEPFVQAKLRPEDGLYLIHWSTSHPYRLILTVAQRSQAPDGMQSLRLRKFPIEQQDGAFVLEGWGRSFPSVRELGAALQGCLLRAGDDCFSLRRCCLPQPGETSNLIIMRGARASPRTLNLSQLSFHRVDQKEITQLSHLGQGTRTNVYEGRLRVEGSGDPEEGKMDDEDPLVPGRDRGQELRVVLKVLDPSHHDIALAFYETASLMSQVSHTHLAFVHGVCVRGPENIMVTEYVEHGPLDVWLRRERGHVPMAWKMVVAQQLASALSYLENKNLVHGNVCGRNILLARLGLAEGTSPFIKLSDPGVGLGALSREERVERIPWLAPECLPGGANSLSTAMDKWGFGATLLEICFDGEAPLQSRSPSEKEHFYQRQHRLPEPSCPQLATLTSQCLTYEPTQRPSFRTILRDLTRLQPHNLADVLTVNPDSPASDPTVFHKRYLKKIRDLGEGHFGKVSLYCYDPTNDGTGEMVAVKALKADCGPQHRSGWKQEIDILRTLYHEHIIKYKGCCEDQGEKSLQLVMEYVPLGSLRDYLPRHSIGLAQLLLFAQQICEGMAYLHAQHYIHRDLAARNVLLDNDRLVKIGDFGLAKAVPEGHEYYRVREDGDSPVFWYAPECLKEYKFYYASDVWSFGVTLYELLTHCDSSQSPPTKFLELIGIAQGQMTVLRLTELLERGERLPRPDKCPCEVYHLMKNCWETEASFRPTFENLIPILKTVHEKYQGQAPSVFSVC
# Protocol: as §1
# [1] = tested on: human T lymphoblastic lymphoma cell line Jurkat; experiment: CCK-8 in vitro proliferation inhibition; assay type: cell-based; details: 72 hours, read-out: Inhibitory activity (IC50) on cell proliferation, JURKAT
# Protocol: (§2) Cell lines: human chronic myeloid leukemia cell line K562, human acute myeloid leukemia cell line U937, human T lymphocyte leukemia cell line HuT78, and human T lymphoblastic lymphoma cell line Jurkat. Cells were purchased from the Chinese Academy of Sciences Stem Cell Bank or ATCC.
# (§3) […] were cultured overnight and suspended cells were directly stimulated with drugs. […] Two repeats were set for each concentration, with a final volume of 200 μL. […] The absorbance values at 450 nm and 650 nm were measured using a microplate reader, and the increment Z (A450-A650) was derived. The inhibitory rate of drugs on cell growth was calculated by GraphPad Prism 8.0.0 through the following formula:
# (§4) Inhibition rate (%)(ODcontrol−ODdosing)/ODcontrol×100%
# (§5) The half inhibitory concentration (IC50) was calculated. Every experiment was repeated at least three times.
# [2] = tested on: human T lymphocyte leukemia cell line HuT78; experiment: CCK-8 in vitro proliferation inhibition; assay type: cell-based; details: read-out: Inhibitory activity (IC50) on cell proliferation, HUT78
# Protocol: as §2, §3, §4, §5
# [3] = tested on: human acute myeloid leukemia cell line U937; experiment: CCK-8 in vitro proliferation inhibition; assay type: cell-based; details: read-out: Inhibitory activity (IC50) on cell proliferation, U937
# Protocol: as §2, §3, §4, §5
# [4] = tested on: human chronic myeloid leukemia cell line K562; experiment: CCK-8 in vitro proliferation inhibition; assay type: cell-based; details: read-out: Inhibitory activity (IC50) on cell proliferation, K562
# Protocol: as §2, §3, §4, §5
# Sequence of JAK1 (P23458 whole entry): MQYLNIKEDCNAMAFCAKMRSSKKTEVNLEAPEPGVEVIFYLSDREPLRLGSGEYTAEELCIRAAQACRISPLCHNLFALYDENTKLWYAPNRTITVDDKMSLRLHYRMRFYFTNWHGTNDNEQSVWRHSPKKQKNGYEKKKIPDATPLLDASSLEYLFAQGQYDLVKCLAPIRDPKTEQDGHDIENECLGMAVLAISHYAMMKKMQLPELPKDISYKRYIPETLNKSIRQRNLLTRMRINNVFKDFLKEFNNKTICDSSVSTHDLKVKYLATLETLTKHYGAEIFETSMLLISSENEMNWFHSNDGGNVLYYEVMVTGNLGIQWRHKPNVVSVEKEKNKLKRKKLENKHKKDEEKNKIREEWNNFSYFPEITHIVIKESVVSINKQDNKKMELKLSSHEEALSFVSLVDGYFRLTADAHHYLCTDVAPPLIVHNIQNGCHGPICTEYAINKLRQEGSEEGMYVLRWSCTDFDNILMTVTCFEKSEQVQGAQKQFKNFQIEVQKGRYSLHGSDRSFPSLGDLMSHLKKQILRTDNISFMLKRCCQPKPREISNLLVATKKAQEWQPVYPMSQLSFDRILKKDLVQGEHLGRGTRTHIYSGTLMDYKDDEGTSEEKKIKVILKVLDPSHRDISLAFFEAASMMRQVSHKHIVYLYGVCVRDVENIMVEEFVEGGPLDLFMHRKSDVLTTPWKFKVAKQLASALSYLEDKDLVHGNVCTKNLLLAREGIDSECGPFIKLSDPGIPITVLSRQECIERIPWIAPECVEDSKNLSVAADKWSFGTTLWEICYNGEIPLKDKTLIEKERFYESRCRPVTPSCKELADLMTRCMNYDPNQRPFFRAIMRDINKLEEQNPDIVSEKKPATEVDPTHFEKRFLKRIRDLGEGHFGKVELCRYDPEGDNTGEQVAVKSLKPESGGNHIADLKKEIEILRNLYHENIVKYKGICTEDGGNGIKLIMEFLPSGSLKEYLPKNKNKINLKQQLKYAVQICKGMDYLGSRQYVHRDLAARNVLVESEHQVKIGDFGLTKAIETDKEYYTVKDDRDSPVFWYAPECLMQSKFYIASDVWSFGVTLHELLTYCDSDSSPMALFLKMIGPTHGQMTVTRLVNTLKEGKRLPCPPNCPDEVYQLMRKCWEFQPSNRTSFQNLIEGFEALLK
Compound,IC50 (JAK1) [nM],IC50 (TYK2) [nM],IC50 (JAK3; ATP concentration 1 mM) [µM],IC50 (JAK3; ATP concentration Km) [µM],"IC50 ([1]; Homo sapiens, Jurkat) [nM]","IC50 ([2]; Homo sapiens, HuT78, 72 hours) [nM]","IC50 ([3]; Homo sapiens, U-937, 72 hours) [nM]","IC50 ([4]; Homo sapiens, K562, 72 hours) [nM]",IC50 (JAK2; ATP concentration Km) [nM],"IC50 (JAK3; ATP concentration 1 mM, in μM) [µM]",IC50 (JAK2) [nM],IC50 (JAK3),IC50 [1] [nM],IC50 ([2]; 72 hours) [nM],IC50 ([3]; 72 hours) [nM],IC50 ([4]; 72 hours) [nM],JAK3 kinase inhibitory activity and selectivity (in words) (JAK3)
C=CC(=O)Nc1cc(Nc2ncc(Cl)c(O[C@@H]3CO[C@H]4[C@@H]3OC[C@H]4OC)n2)ccc1N1CCC(N2CCN(C)CC2)CC1 [LS 6-16],533,906,–,–,–,–,–,–,–,–,967,0.00812 µM and 0.0125 µM,136,121,24,191,–
C=CC(=O)Nc1cc(Nc2ncc(Cl)c(O[C@@H]3CO[C@H]4[C@@H]3OC[C@H]4O)n2)ccc1N(C)CCN(C)C [LS 5-88],2870,424,0.00225,0.00193,111,81.1,15.3,417,–,–,–,–,–,–,–,–,–
"C=CC(=O)Nc1cc(Nc2ncc(Cl)c(O[C@@H]3CO[C@H]4[C@@H]3OC[C@H]4O)n2)ccc1N1CCC(N2CCN(C)CC2)CC1 [LS 5-12, N-(5-((5-chloro-4-(((3R,3aR,6R, 6aR)-6-hydroxyhexahydrofurano[3,2-b]furan-3-yl)oxygen)pyrimidin-2-yl)amino)-2-(4-(4-methylpiperazin-1-yl)piperidin-1-yl)phenyl) acrylamide]",1540,369,–,–,–,–,–,–,–,–,1030,–,434,31.7,35.9,290,strong and selective JAK3 kinase inhibitory activity
C=CC(=O)Nc1cc(Nc2ncc(Cl)c(O[C@@H]3CO[C@H]4[C@@H]3OC[C@H]4O)n2)ccc1N1CCC2(CCN(C)CC2)CC1 [LS 5-91],895,233,0.0206,0.0055,34.1,19.2,5.78,70.9,1060,–,–,–,–,–,–,–,strong and selective JAK3 kinase inhibitory activity
C=CC(=O)Nc1cc(Nc2ncc(Cl)c(O[C@@H]3CO[C@H]4[C@@H]3OC[C@H]4O)n2)ccc1N1CCOCC1 [LS 5-66],1120,335,0.0144,0.0059,2640,1090,87.5,1860,1160,–,–,–,–,–,–,–,strong and selective JAK3 kinase inhibitory activity
CN1CCN(C2CCN(c3ccc(Nc4ncc(Cl)c(O[C@@H]5CO[C@H]6[C@@H]5OC[C@H]6O)n4)cc3)CC2)CC1 [LS 4-145],470,301,4.29,0.066,9030,2390,516,822,981,–,–,–,–,–,–,–,–
CN(C)C/C=C/C(=O)Nc1cc(Nc2ncc(Cl)c(O[C@@H]3CO[C@H]4[C@@H]3OC[C@H]4O)n2)ccc1N1CCC(N2CCN(C)CC2)CC1 [LS 5-81],4880,278,4.19,0.057,3050,1060,227,5980,2360,–,–,–,–,–,–,–,–
C=CC(=O)Nc1cc(Nc2ncc(Cl)c(O[C@@H]3CO[C@H]4[C@@H]3OC[C@H]4O)n2)ccc1F [LS 5-62],1060,860,–,–,–,–,–,–,–,–,11000,0.0022 µM and 0.00226 µM,2460,423,111,637,strong and selective JAK3 kinase inhibitory activity
C=CC(=O)Nc1cccc(Nc2ncc(Cl)c(O[C@@H]3CO[C@H]4[C@@H]3OC[C@H]4O)n2)c1 [LS 5-77],556,93.9,–,–,–,–,–,–,–,–,1400,0.00125 µM and 0.00239 µM,1660,447,106,103,strong and selective JAK3 kinase inhibitory activity
COc1cc(Nc2ncc(Cl)c(O[C@@H]3CO[C@H]4[C@@H]3OC[C@H]4O)n2)ccc1N1CCC(N2CCN(C)CC2)CC1 [LS 4-143],618,421,–,0.0474,6340,3380,739,354,541,> 10,–,–,–,–,–,–,–
C/C=C/C(=O)Nc1cc(Nc2ncc(Cl)c(O[C@@H]3CO[C@H]4[C@@H]3OC[C@H]4O)n2)ccc1N1CCC(N2CCN(C)CC2)CC1 [LS 5-72],2670,430,4.38,0.0905,2780,928,524,2760,1540,–,–,–,–,–,–,–,–
C=CC(=O)Nc1cc(Nc2ncc(Cl)c(O[C@@H]3CO[C@H]4[C@@H]3OC[C@H]4O)n2)ccc1N(C)CCO [LS 5-74],1120,226,0.00737,0.00426,3950,448,181,91.8,1520,–,–,–,–,–,–,–,strong and selective JAK3 kinase inhibitory activity

# The next lines start with results.
IC50 (JAK1) [nM],IC50 (TYK2) [nM],IC50 (JAK3; ATP concentration 1 mM) [µM],IC50 (JAK3; ATP concentration Km) [µM],"IC50 ([1]; Homo sapiens, Jurkat) [nM]","IC50 ([2]; Homo sapiens, HuT78, 72 hours) [nM]","IC50 ([3]; Homo sapiens, U-937, 72 hours) [nM]","IC50 ([4]; Homo sapiens, K562, 72 hours) [nM]",IC50 (JAK2; ATP concentration Km) [nM],"IC50 (JAK3; ATP concentration 1 mM, in μM) [µM]",Compound,IC50 (JAK2) [nM],IC50 (JAK3),IC50 [1] [nM],IC50 ([2]; 72 hours) [nM],IC50 ([3]; 72 hours) [nM],IC50 ([4]; 72 hours) [nM],JAK3 kinase inhibitory activity and selectivity (in words) (JAK3)
481,166,0.00217,0.00219,128,75.3,12,216,362,–,C=CC(=O)Nc1cc(Nc2ncc(Cl)c(O[C@@H]3CO[C@H]4[C@@H]3OC[C@H]4O)n2)ccc1N1CCN(CC)CC1 [LS 5-143],–,–,–,–,–,–,strong and selective JAK3 kinase inhibitory activity
800,188,0.00159,0.00156,346,717,34,2410,524,–,C=CC(=O)Nc1cc(Nc2ncc(Cl)c(O[C@@H]3CO[C@H]4[C@@H]3OC[C@H]4O)n2)ccc1N1C[C@H]2C[C@@H]1CN2C [LS 5-154],–,–,–,–,–,–,strong and selective JAK3 kinase inhibitory activity
270,186,0.00174,0.00198,275,272,15.8,897,606,–,C=CC(=O)Nc1cc(Nc2ncc(Cl)c(O[C@@H]3CO[C@H]4[C@@H]3OC[C@H]4O)n2)ccc1N1CCC(N(C)C)C1 (stereo partly shown) [LS 5-150],–,–,–,–,–,–,strong and selective JAK3 kinase inhibitory activity
1040,241,0.00268,0.0025,290,92.4,21.1,866,437,–,C=CC(=O)Nc1cc(Nc2ncc(Cl)c(O[C@@H]3CO[C@H]4[C@@H]3OC[C@H]4O)n2)ccc1N1CCC(N(C)C)CC1 [LS 5-102],–,–,–,–,–,–,strong and selective JAK3 kinase inhibitory activity
4770,3120,0.00435,0.0039,551,463,69.2,39.9,2080,–,"C=CC(=O)Nc1cc(Nc2ncc(Cl)cn2)ccc1N1CCC(N2CCN(C)CC2)CC1 [LS 5-126, N-(5-((5-chloropyrimidin-2-yl)amino)-2-(4-(4-methylpiperazin-1-yl)piperidin-1-yl)phenyl) acrylamide]",–,–,–,–,–,–,–

# Reference: patent US20230348487A1, “2-AMINOPYRIMIDINE COMPOUND AND PHARMACEUTICAL COMPOSITION THEREOF AND APPLICATION THEREOF” (GUANGZHOU SALUSTIER BIOSCIENCES CO., LTD., priority 2021, published 2023)
